From patent EP0388950A2, “New 1,3-dioxolan-4-yl derivatives of 2-picolylamine” (J. URIACH & CIA. S.A., priority 1989, dated 1990)

Experiments:
[1] = tested on: platelet aggregation induced by PAF; experiment: Inhibition of platelet aggregation induced by PAF (rabbit platelet rich plasma, Born nephelometric technique); type: cell-based, New Zealand albino rabbits; settings: Oryctolagus cuniculus, concentration needed to inhibit platelet aggregation by 50%, PAF (C₁₈) 16 nM final, read-out: IC₅₀
Procedure: Inhibition of platelet aggregation induced by PAF.
The blood is obtained by cardiac puncture of male New Zealand albino rabbits (between 2 and 2.5 Kg of weight) and coagulation is prevented by adding 1 part of 3.16% sodium citrate dihydrate in 9 parts of blood. The platelet rich plasma (PRP) is prepared by blood centrifugation at 250xg for 10 min. at 4°C and it is diluted with platelet poor plasma (PPP) by additional centrifugation at 3000xg for 10 min. The amount of platelets is adjusted to […]. The platelet aggregation induced by PAF (C₁₈; prepared in our laboratory) (16 nM, final) is determined by the Born nephelometric technique (J. Physiol., 1962, 162, 67) using a aggregometer Chrono-log 500. The activities of the inhibitors are expressed as IC₅₀, that is to say the concentration of the drug needed to inhibit the platelet aggregation by 50%.

[2] = tested on: hypotension induced by PAF; experiment: Inhibition of the hypotensive effect induced by PAF in normotense rats; type: in vivo, Sprage Dawley rats; settings: anesthetized male rats; compound given through the femoral vein 3 min before PAF (0.5 mcg/Kg, i.v.); average arterial pressure
Procedure: Inhibition of the hypotensive effect induced by PAF in normotense rats.
Male Sprage Dawley rats, of 180-220 g of weight, anesthetized with sodium pentobarbital (50 mg/Kg, i.p. 1 mL/100 g) have been used. In order to measure the average arterial pressure, a polyethylene catheter is introduced into the carotid artery. The arterial pressure is recorded with the help of a transducer connected with a R611 Beckman polygraph. The tested compounds are administered through the femoral vein 3 min before the injection of PAF (0.5 mcg/Kg, i.v.).

In the case of `CCCCCCCCCCCCCCCCCC1OCC(COC(=O)N(Cc2cccc[n+]2C)C(C)=O)O1.[I-]` (stereo not drawn) [Compound 3, 2-(N-Acetyl-N-(((2-heptadecyl-1,3-dioxolane-4-yl)methoxy)carbonyl)aminomethyl)-1-methylpyridinium iodide], the IC50 [1] is reported as 2200 nM and the CI₅₀ [2] is reported as 0.9 mg/Kg,i.v.

With `CCCCCCCCCCCCCCCCCC1OCC(COC(=O)N(Cc2cccc[n+]2CC)C(C)=O)O1.[I-]` (stereo not drawn) [Compound 4, 2-(N-acetyl-N-(((2-heptadecyl-1,3-dioxolane-4-yl)methoxy)carbonyl)aminomethyl)-1-ethylpyridinium iodide] the IC50 [1] was 210 nM and the CI₅₀ [2] was 0.2 mg/Kg,i.v.

In the case of `CCCCCCCCCCCCCCCCOCC1OCC(COC(=O)N(Cc2cccc[n+]2CC)C(C)=O)O1.[I-]` (stereo not drawn) [Compound 7, 2-(N-Acetyl-N-(((2-hexadecyloxymethyl-1,3-dioxolan-4-yl)methoxy)carbonyl)aminomethyl)-1-ethylpyridinium iodide], the IC50 [1] is reported as < 100 nM and the CI₅₀ [2] is reported as <0.1 mg/Kg,i.v.

For `CCCCCCCCCCCCCCCCCCOCC1OCC(COC(=O)N(Cc2cccc[n+]2C)C(C)=O)O1.[I-]` (stereo not drawn) [Compound 10, 2-(N-Acetyl-N-(((2-octadecyloxymethyl-1,3-dioxolan-4-yl)methoxy)carbonyl)aminomethyl)-1-methylpyridinium iodide], the IC50 [1] was 1200 nM and the CI₅₀ [2] was 0.35 mg/Kg,i.v.

For `CCCCCCCCCCCCCCCCCCOCC1OCC(COC(=O)N(Cc2cccc[n+]2CC)C(C)=O)O1.[I-]` (stereo not drawn) [Compound 11, 2(N-Acetyl-N-(((2-octadecyloxymethyl-1,3-dioxolan-4-yl)methoxy)carbonyl)aminomethyl)-1-ethylpyridinium iodide], the IC50 [1] was 160 nM and the CI₅₀ [2] was <0.1 mg/Kg,i.v.

With `CCCCCCCCCCCCCCCNC(=O)OCC1OCC(COC(=O)N(Cc2cccc[n+]2CC)C(C)=O)O1.[I-]` (stereo not drawn) [Compound 14, 2(N-Acetyl-N-(((2-pentadecylcarbamoyloxymethyl-1,3-dioxolan-4-yl)methoxy)carbonyl)aminomethyl)-1-ethylpyridinium iodide] the IC50 [1] was < 100 nM and the CI₅₀ [2] was <0.1 mg/Kg,i.v.
